Reference: patent publication US20240293367A1, “METHODS OF TREATING DISORDERS WITH A […]” (Cybin IRL Limited, priority 2023, published 2024)
Values joined by “and” are separate entries in the source; they are usually repeats but may differ in a detail not shown here. Equal entries are not always repeated.

Test system: participants with MDD
Test: MADRS total score, response, remission and relapse in MDD participants (Phase I/IIa study)
Format: in vivo, human
Conditions: for effect size, Cohen's d, versus placebo (MADRS): Day 21
Excerpt: Cohorts 1, 4, 5, and 6 of the study was comprised of participants with MDD. Cohorts 2, 3, and the relative BA cohort of the study were comprised of normal healthy volunteers (NHV). […] MDD participants had been on a stable dose of antidepressant medication for at least one month prior to screening with an inadequate response to that antidepressant medication as judged by the Investigator, and continued to receive their prescribed antidepressant throughout the course of the study.
Cohorts 4 and 5. For Cohorts 4 and 5, 12 participants each (24 participants total) were randomized in a 3:1 ratio to receive 12 mg of psilocin-d10 or matched placebo in a single dosing session on Day 1. Following a 21-day interval, all participants received a dose of 12 mg psilocin-d10 on Day 22 (second dose for participants originally randomized to psilocin-d10, first dose for participants randomized to placebo), and were followed to Day 42.
Cohort 6. For Cohort 6, 12 participants were randomized in a 3:1 ratio to receive 16 mg of psilocin-d10 or matched placebo in a single dosing session on Day 1. Following a 21-day interval, all participants received a dose of 16 mg psilocin-d10 on Day 22 (second dose for participants originally randomized to psilocin-d10, first dose for participants randomized to placebo), and were followed to Day 42. Given the availability of data and considering that the secondary endpoint was a change in baseline to Day 21 in MADRS, efficacy data presented herein considers the data cut off of Day 21 postdose. One participant had to be withdrawn from the study due to pregnancy.
The primary efficacy endpoint defined in the statistical analysis plan (SAP) is the change from baseline to Day 21 of the total Montgomery-Åsberg Depression Rating Scale (MADRS) score compared to placebo, therefore efficacy data presented herein considers the data cut off of Day 21 postdose. Mean total score and change from baseline on Montgomery-Åsberg Depression Rating Scale (MADRS) on days 1, 10, 17, 22, 31, 38, and 42 are presented as secondary efficacy endpoints.
The secondary objective of the study was to evaluate the efficacy of psilocin-d10 in treating symptoms of MDD as measured by the change from baseline to Day 21 of the MADRS total score in the Intent-to-Treat population, with data analyzed according to the treatment group each participant was randomized to receive. Data from participants in Cohorts 4, 5, and 6 randomized to placebo was pooled for analysis purposes (N=9). Data from participants in Cohorts 4, 5, and 6 randomized to 12 mg or 16 mg psilocin-d10 (N=27) was also pooled for analysis.
Data from the study was also analyzed according to dosage level of psilocin-d10. Data from participants in Cohorts 4, 5, and 6 randomized to placebo was pooled for analysis purposes (N=9). Data from participants in Cohorts 4 and 5 (treated with 12 mg psilocin-d10) was also pooled for analysis (N=18).
The rates of remission, response, and relapse were also evaluated within the study. […] Additionally, 20.8% (5 out of 24) of participants in the psilocin-do group (12 mg and 16 mg combined) were in remission (remitters) (defined as a MADRS score of ≤10) compared to 0% for placebo at Day 21. The same 5 participants who were in remission were also classified as responders. None of the participants relapsed at Day 21 compared to baseline.
The MADRS is a 10-item scale with ratings based on a clinical interview which moves from broadly phrased questions about symptoms to more detailed ones allowing a precise rating of severity. A rating scale from 0 to 6 is employed and the rater must decide whether the rating lies on defined scale steps (0, 2, 4, 6) or between them (1, 3, 5). The MADRS can be used for any time interval between ratings, be it weekly or otherwise, and the time interval should be recorded. […]

[1] = Day 42, Cohort 4, two 12 mg doses
[2] = Day 42, Cohort 5, two 12 mg doses
[3] = Day 42, Cohort 6, two 16 mg doses
[4] = Day 42, Cohorts 4 and 5, two 12 mg doses
[5] = Day 42, Placebo/active group, one dose Day 22
[6] = Day 42, Placebo/active group: one psilocin-d10 dose Day 22
[7] = Day 42, two 12 mg doses (11 out of 14)
[8] = Day 42, two 12 mg doses, Cohorts 4 and 5
[9] = Day 42, two 16 mg doses, Cohort 6
[10] = Day 42, two doses (Day 1, Day 22), 12 and 16 mg pooled
[11] = Day 42, two doses, 12 and 16 mg pooled
[12] = Day 42, two doses, pooled 12 mg and 16 mg

For `[2H]C([2H])([2H])N(C([2H])([2H])[2H])C([2H])([2H])C([2H])([2H])c1c[nH]c2cccc(O)c12` [psilocin-d10, 3-(2-(bis(methyl-d3)amino)ethyl-1,1,2,2-d4)-1H-indol-4-ol], the “Relapse - Yes” value [1] was 0 (0.0) n (%), the “Remission (MADRS ≤10) - Yes” value [1] was 5 (71.4) n (%) and the “Remission - No” value [1] was 2 (28.6) n (%). For the same compound, the “Response (≥50% reduction from baseline MADRS) - Yes” value [1] was 5 (71.4) n (%), the “Response - No” value [1] was 2 (28.6) n (%) and the “Relapse - No” value [2] was 8 (100.0) n (%). The “Relapse - Yes” value [2] was 0 (0.0) n (%), the “Remission (MADRS ≤10) - Yes” value [2] was 6 (85.7) n (%) and the “Remission - No” value [2] was 1 (14.3) n (%). The “Response (≥50% reduction from baseline MADRS) - Yes” value [2] was 6 (85.7) n (%), the “Response - No” value [2] was 1 (14.3) n (%) and the “Relapse - No” value [3] was 8 (100.0) n (%). For the same compound, the “Relapse - Yes” value [3] was 0 (0.0) n (%), the “Remission (MADRS ≤10) - Yes” value [3] was 4 (50.0) n (%) and the “Remission - No” value [3] was 4 (50.0) n (%). The “Response (≥50% reduction from baseline MADRS) - Yes” value [3] was 6 (75.0) n (%), the “Response - No” value [3] was 2 (25.0) n (%) and the “Relapse - No” value [4] was 15 (100.0) n (%). For the same compound, the “Relapse - Yes” value [4] was 0 (0.0) n (%), the “Remission (MADRS ≤10) - Yes” value [4] was 11 (78.6) n (%) and the “Remission - No” value [4] was 3 (21.4) n (%). For the same compound, the “Response (≥50% reduction from baseline MADRS) - Yes” value [4] was 11 (78.6) n (%), the “Response - No” value [4] was 3 (21.4) n (%) and the “Relapse - No” value [5] was 9 (100.0) n (%). For the same compound, the “Relapse - Yes” value [5] was 0 (0.0) n (%), the “Remission - No” value [5] was 5 (55.6) n (%) and the “Response (≥50% reduction from baseline MADRS) - Yes” value [5] was 4 (44.4) n (%). For the same compound, the “Response - No” value [5] was 5 (55.6) n (%), the “Remission (MADRS ≤10) - Yes” value (Day 42, Placebo/active group, one dose Day 22 (pooled 12 mg and 16 mg)) was 4 (44.4) n (%) and the “MADRS total score, Change from Baseline, Median” value [6] was −14.0. The “MADRS total score, Observed, Median” value [6] was 16.0, the “MADRS total score, Change from Baseline, Mean” value (Day 42, Placebo/active group: one psilocin-d10 dose Day 22 (12 and 16 mg pooled)) was −16.4 and the “MADRS total score, Observed, Mean” value (Day 42, Placebo/active group: placebo Day 1, one psilocin-d10 dose Day 22 (12 and 16 mg pooled)) was 15.1. The participants in remission (Day 42, after second dose, 12 mg and 16 mg combined (15 out of 22)) was 68.2%, the participants with response (Day 42, after second dose, 12 mg and 16 mg combined (17 out of 22)) was 77.3% and 77% and the participants with response (Day 42, placebo/psilocin-d10 group, first dose Day 22 (4 out of 9)) was 44.4%. For the same compound, the participants in remission [7] was 78.6%, the participants with response [7] was 78.6% and the “MADRS total score, Change from Baseline, Mean” value [8] was −22.8. The “MADRS total score, Change from Baseline, Median” value [8] was −25.5, the “MADRS total score, Observed, Mean” value [8] was 9.4 and the “MADRS total score, Observed, Median” value [8] was 3.5. For the same compound, the participants in remission (Day 42, two 16 mg doses (4 out of 8)) was 50.0%, the participants with response (Day 42, two 16 mg doses (6 out of 8)) was 75% and the “MADRS total score, Change from Baseline, Mean” value [9] was −17.6. For the same compound, the “MADRS total score, Change from Baseline, Median” value [9] was −20.5, the “MADRS total score, Observed, Mean” value [9] was 13.0 and the “MADRS total score, Observed, Median” value [9] was 11.5. The “MADRS total score, Change from Baseline, Mean” value [10] was −20.9, the “MADRS total score, Observed, Mean” value [10] was 10.7 and the “MADRS total score, Change from Baseline, Median” value [11] was −24.5. For the same compound, the “MADRS total score, Observed, Median” value [11] was 7.0, the “Relapse - No” value [12] was 22 (100.0) n (%) and the “Relapse - Yes” value [12] was 0 (0.0) n (%). The “Remission (MADRS ≤10) - Yes” value [12] was 15 (68.2) n (%), the “Remission - No” value [12] was 7 (31.8) n (%) and the “Response (≥50% reduction from baseline MADRS) - Yes” value [12] was 17 (77.3) n (%). The “Response - No” value [12] was 5 (22.7) n (%), the “MADRS, Difference in LS Means, 12 mg (two doses) compared to Placebo/active (one dose)” value (Day 42, 95% CI (−14.2, 7.5), P 0.5299) was −3.34 and the “MADRS, Difference in LS Means, 12 mg compared to Cohort 6 (16 mg)” value (Day 42, 95% CI (−15.3, 22.5), P 0.6999) was 3.58. For the same compound, the “MADRS, difference in LS means, 16 mg (two doses) versus Placebo/active (one dose)” value (Day 42, 95% CI −22.8, 7.2, p=0.2931) was −7.79, the “participants meeting criteria for response” value (Day 126, two 12 mg doses (Day 1, Day 22), N=15) was 73% and the “participants meeting criteria for remission” value (Day 126, two 12 mg doses, N=15) was 60%. The “participants meeting criteria for response” value (Day 126, two 16 mg doses (Day 1, Day 22), N=8) was 75%, the “participants meeting criteria for remission” value (Day 126, two 16 mg doses, N=8) was 75% and the “effect size, Cohen's d, versus placebo (MADRS)” value (single 12 mg dose, 95% CI: 0.92, 3.37) was 2.15. For the same compound, the “effect size, Cohen's d, versus placebo (MADRS)” value (single 16 mg dose) was 2.54.
